In assay [1] the target is T1, CDK2 (Homo sapiens, UniProt P24941).
T1 construct: High-Throughput Measurement of Cellular Endogenous CDK2; endogenous in cells; host or cells: OVCAR3
The experiment in a line: Inhibition of CDK2: phospho-Rb (S807/811) HTRF measurement in OVCAR3 cells. It counts as cell-based. The conditions noted are these: 24 h compound treatment, HTRF phospho-RB S807/811, read-out: pRb OVCAR3 (μM), CDK2 IC50 in pRB(S807/811) assay. As for the experimental part:
Phosphorylation of RB protein at S807/811 were measured using HTRF phospho-RB cellular kits (Cat #64RBS807PEG) from Cisbio.
On Day 1, OVCAR3 (CDK2 dependent cell line) cells were seeded into 96-well tissue-culture treated plates at 20,000 cells/well in 200 μL and incubated overnight at 37° C. in CO2 atmosphere. On Day 2, the cells were treated with test compounds at concentrations from 0.3 to 10,000 nM using HP D300 digital dispenser. Twenty-four hours after compound treatment, cell culture media was removed by flicking the plate and tapping the plate against clean paper towel. Immediately 30 μL 1× lysis buffer was supplemented from the kit and the plate was incubated at room temperature on shaker for 30 min. After homogenization by pipetting up and down, 8 μL cell lysate from 96-well cell culture plate was transferred to 384-well small volume white detection plate. 2 μL premixed detection solution was added and the plate was covered with sealer. […] Detection plates were incubated for 4 h at room temperature and read on ClarioStar (BMG Labtech) in TR-FRET mode ([…]). […] Half maximal inhibition concentration (IC50) values are calculated with a four-parameter logistic fit using GraphPad Prism (version 8; La Jolla, CA). […]
Background: In TR-FRET formats the signal depends on donor and acceptor labels being close together.

The target of assay [2] is T1, CDK2. The experiment in a line: High-throughput HTRF measurement of cellular endogenous CDK2 (degradation) in OVCAR3 cells. It counts as cell-based. Conditions: HTRF total CDK2, read-out: DC50 OVCAR3_6 h. As for the experimental part: Effects of compounds on cellular CDK2 level can be monitored by a high-throughput HTRF assay.
To determine half maximal degradation concentration (DC50) values of compounds, cellular CDK2 level was measured in 96-well format using HTRF total CDK2 cellular kit (Cat #64CDK2TPEG) from Cisbio.
On Day 1, OVCAR3 cells were seeded into 96-well tissue-culture treated plates at 20,000 cells/well in 200 μL and incubated overnight at 37° C. in C02 atmosphere. On Day 2 cells were treated with compounds at concentration ranging from 0.3 to 10,000 nM using HP D300 digital dispenser. […] Immediately 30 μL 1× lysis buffer was supplemented from the kit and the plate was incubated at room temperature on shaker for 30 min. After homogenization by pipetting up and down, 8 μL cell lysate from 96-well cell culture plate was transferred to 384-well small volume white detection plate. 2 μL premixed detection solution was added and the plate was covered with sealer. […] Detection plates were incubated overnight at room temperature and read on ClarioStar (BMG Labtech) in TR-FRET mode (665 nM and 620 nM). […] Half maximal degradation concentration (DC50) values were calculated with a four-parameter logistic fit using GraphPad Prism (version 8; La Jolla, CA).

A word on the DC50: it is the concentration giving 50% degradation. Regarding `Cn1nc(N2CCC(=O)NC2=O)c2ccc(C3CCN(Cc4cccc(S(=O)(=O)N5CC[C@H](Nc6ncc7ccc(=O)n(CC(F)(F)F)c7n6)[C@H](F)C5)c4)CC3)cc21` (racemic) [compound 2, Rac-1-(6-(1-(3-(((3R,4S)-3-fluoro-4-((7-oxo-8-(2,2,2-trifluoroethyl)-7,8-dihydropyrido[2,3-d]pyrimidin-2-yl)amino)piperidin-1-yl)-sulfonyl)benzyl)piperidin-4-yl)-1-methyl-1H-indazol-3-yl)dihydropyrimidine-2,4(1H,3H)-dione], the IC50 on CDK2 [1] was 1 to 10 µM. In addition, the 50% degradation concentration (DC50) on CDK2 [2] was found to be 1310 nM.

As for `Cn1nc(N2CCC(=O)NC2=O)c2ccc(C3CCN(Cc4cccc(S(=O)(=O)N5CC[C@H](Nc6ncc7ccc(=O)n(C)c7n6)[C@H](F)C5)c4)CC3)cc21` (racemic) [compound 1, Rac-1-(6-(1-(3-(((3R,4S)-3-fluoro-4-((8-methyl-7-oxo-7,8-dihydropyrido[2,3-d]pyrimidin-2-yl)amino)piperidin-1-yl)sulfonyl)benzyl)-piperidin-4-yl)-1-methyl-1H-indazol-3-yl)-dihydropyrimidine-2,4(1H,3H)-dione], the IC50 on CDK2 [1] fell in the range of 0.1 to 1 µM. The half-maximal degradation concentration (DC50) at CDK2 [2] was 41.9 nM.

Values taken from US20260021095A1, “BIFUNCTIONAL COMPOUNDS CONTAINING PYRIDO[2,3-d]PYRIMIDIN-7(8H)-ONE DERIVATIVES FOR DEGRADING CYCLIN-DEPENDENT KINASE 2 VIA UBIQUITIN PROTEASOME PATHWAY” (NIKANG THERAPEUTICS, INC., priority 2022, published 2026).
